The record followed here is patent US20100022582A1, “Tetrahydroisoquinoline Compound and Medicinal Use Thereof” (priority 2005, published 2010).

One data set has as its system liver ACAT. Description: ACAT inhibitory activity (rabbit liver microsome, cholesteryl oleate production). It counts as biochemical, Japanese white rabbits. The conditions noted are these: 37° C. for 20 min. As to the method: Male Japanese white rabbits (body weight 2-2.5 kg) were bred on 100 g of a high cholesterol feed (feed added with cholesterol 1%, CLEA Japan, Inc.) daily for 4 weeks and sacrificed by exsanguination under anesthesia. The liver was removed, homogenated and centrifuged at 10,000 rpm and 4° C. for 15 min. The obtained supernatant was further centrifuged at 41,000 rpm and 4° C. for 60 min to give a microsome fraction. To a 0.15 M phosphate buffer were added the microsome suspension as an enzyme specimen, dimethyl sulfoxide (DMSO) or a solution (3 μL) of a test compound in DMSO and [1-14C]-oleoyl-CoA to be a reaction substrate to the total amount of 300 μL. After incubation at 37° C. for 20 min, a mixed solution of chloroform-methanol was added to quench the reaction. Water was added thereto and mixed, and the chloroform layer was separated. The solvent was evaporated to dryness and the residue was redissolved in n-hexane. The resulting solution was subjected to thin layer chromatography using a silica gel plate. The spot of cholesteryl oleate on the silica gel plate was scraped and quantified on a liquid scintillation counter. The ACAT inhibitory activity of the test compound is shown in cholesteryl oleate production inhibitory rate (%) [level of inhibition of cholesteryl oleate production as compared to the control].

The subject of data set [1] is THP-1 cell-derived macrophage. Description: Cholesterol ester accumulation-inhibitory activity (THP-1 cell-derived macrophage foam cell formation). It counts as cell-based. The conditions noted are these: THP-1 macrophage, acetyl LDL, 3 days. As to the method:
THP-1 cells (DAINIPPON PHARMACEUTICAL CO., LTD.) were subcultured in RPMI-1640 medium containing 10% fetal calf serum (FBS), and cells at 6-13th passage after purchase were used. The cells were suspended in FBS-containing RPMI-1640 medium to give a suspension having a concentration of 4×10^5 cells/mL. The cell suspension was seeded on 12-well microplate by 1 mL, and treated with phorbol 12-myristate 13-acetate (PMA, 200 nM) as a differentiation inducer into macrophage. Then, acetyl LDL (400 μg/mL) separately prepared from LDL derived from plasma of a rabbit with genetic hyperlipidemia (KHC rabbit, Japan Laboratory Animals Inc.) was added. A test compound further dissolved in dimethyl sulfoxide (DMSO) and diluted with FBS-containing RPMI-1640 medium and a control solvent were applied. After cultivation in a carbon dioxide incubator for 3 days, the cells were washed with phosphate-buffered saline (pH 7.0), and the lipid was extracted with hexane-isopropanol (3:2). In addition, the cells were lysed with 1N-NaOH, and the protein content was measured. Free cholesterol and cholesterol ester in the lipid extraction sample were measured according to the method of Kunitomo et al. [Japan. J. Pharmacol., 34, 153-158 (1984)]. Cholesterol esters in the control cells and the cells treated with the test compound were compared, and the cholesterol ester accumulation inhibitory rate of the test compound was calculated.

Data set [2] has as its system cholesterol secretion from the liver. The data set is described as follows: Mouse liver lipid secretion-inhibitory activity (Triton WR-1339 method). It counts as in vivo, Slc: ICR mice. The conditions noted are these: (10 mg)/kg orally; 3 hr after Triton WR-1339; mice. As to the method: About 5-week-old male Slc: ICR mice (Japanese SLC) were preliminarily bred for 1 week by feeding only in the daytime (9:00-18:00). During this period, the mice were-allowed to freely take tap water even during night. The mice were divided into a control group and a test compound group (6 mice per group) so that the average and standard deviation of the body weight would be almost the same. Blood (about 80 μL) was drawn from the orbital venous plexus under anesthesia using a glass capillary, and a test compound solution (10 mL/kg) obtained by previously suspending the compound in 5% gum arabic solution at 30 min after the blood sampling was orally administered. At 30 min after the administration, Triton WR-1339 (60 mg/mL) solution previously prepared with physiological saline was administered from the tail vein at a dose of 5 mL/kg. Blood was drawn again from the orbital venous plexus at 3 hr after the administration of Triton WR-1339. Plasma was separated from the blood taken and the total plasma cholesterol (TC) was measured using a commercially available measurement kit (Wako Pure Chemical Industries, Ltd.). The changes in the blood concentration over 3 hr after the Triton WR-1339 administration were calculated and taken as the cholesterol secretion rate from the liver. The secretion rates were compared between the control group and the test compound group, and the cholesterol secretion inhibitory rate by the test compound was calculated.

Data set [3] can be described thus: Oral administration experiment (plasma concentration). It counts as in vivo. The conditions noted are these: (10 mg)/kg orally, male SD rats, plasma 0.5-6 hr. Here is the method: The test compound (10 mg)/kg suspended in 5% gum arabic solution was forcedly administered orally to male SD rats (body weight 200-250 g). At 0.5, 1, 2, 4, 6 hr after administration, blood was drawn without anesthesia, and heparin plasma was separated by a conventional method. The concentration of the test compound in the plasma was measured by high performance liquid chromatography.

Data set [4] in a line: Stable radical elimination action (DPPH). The conditions noted are these: 0.1 mM DPPH. As to the method: 0.1 mM Diphenyl-2-picrylhydrazyl (DPPH) acetonitrile (CH3CN) solution (3 mL) was placed in a glass test tube, and a DMSO solution of a test compound was added at a 1% dose (30 μL). As a control, 0.1 mM DPPH CH3CN solution (3 mL) containing DMSO (30 μL) was used and for a blank test, CH3CN (3 mL) containing DMSO (30 μL) was used. After standing the solutions at room temperature for 60 min (20 min for Examples 69, 72 and 73), the absorbance at 517 nm was measured by a spectrophotometer. A stable radical inhibitory rate when control was 100% was calculated from [(absorbance of test substance−absorbance of blank test)÷(absorbance of control−absorbance of blank test)].
On the technique in general: Loss of DPPH colour is used to gauge radical scavenging.

Data set [5] deals with brain homogenate lipid peroxidation. Description: Lipid peroxidation-inhibitory action (brain homogenate, MDA). It counts as biochemical, SD rat. The conditions noted are these: rat brain homogenate, 37° C. for 30 min. Here is the method:
The brain was removed from male SD rat, and a 50 mM phosphate buffer (pH 7.4, 5-fold amount of brain weight) was added. The mixture was homogenized under ice-cooling for 30 sec, and centrifuged at 4° C., 3200 rpm for 10 min. The supernatant was diluted 5-fold with 50 mM phosphate buffer to give a brain homogenate. A test compound (10 μL) was placed in a glass test tube, the brain homogenate (1 mL) was added, and the mixture was incubated at 37° C. for 30 min. 20% Trichloroacetic acid (1 mL) was added to quench the reaction. The reaction mixture was centrifuged at room temperature, 4000 rpm for 10 min. Thiobarbituric acid (0.2 mL) was added to the supernatant (1 mL) and the mixture was heated at 95° C. for 15 min. The absorbance at 532 nm was measured, and lipid peroxide was quantified as malondialdehyde (MDA). The MDA level was compared between the control and the test compound-added sample, and the lipid peroxidation inhibitory rate was calculated.

Where [6] appears, read: room temperature 20 min (Examples 69, 72 and 73).

For the compound `Cc1cc(NC(=O)[C@@H]2Cc3ccc(N(C)C)cc3CN2C(=O)C(C)(C)C)c(C)c(C)c1O.Cl` [Example 73, 7-dimethylamino-2-(2,2-dimethylpropionyl)-N-(4-hydroxy-2,3,5-trimethylphenyl)-1,2,3,4-tetrahydroisoquinoline-(3S)-carboxamide hydrochloride], the “liver ACAT inhibition rate (%) (concentration: 10^−6 M)” value in the data set with liver ACAT amounted to 97.7%. In data set [1], the “cholesteryl ester accumulation inhibitory rate (%) (concentration: 10^−6 M)” value is recorded as 91.8%. In addition, the “Cholesterol secretion inhibitory rate (%) (10 mg)/kg/3 hr” value in data set [2] is given as 32.9%. Further, in data set [3], the “maximum blood concentration” value came out at 0.55 µg/mL. In data set [4] (setting [6]), the “inhibitory rate (%) (10^−4M), stable radical” value is listed as 97.0%.

In the case of `CCCN(C)Cc1ccc2c(c1)CN(C(=O)C(C)C)[C@H](C(=O)Nc1cc(C)c(O)c(C)c1C)C2` [Example 138, N-(4-hydroxy-2,3,5-trimethylphenyl)-2-isobutyryl-7-(N-methylpropylamino)methyl-1,2,3,4-tetrahydroisoquinoline-(3S)-carboxamide], in data set [3], the “maximum blood concentration” value is 0.42 µg/mL.

For the compound `Cc1cc(NC(=O)[C@@H]2Cc3ccc(CN4CC(F)C4)cc3CN2C(=O)C(C)(C)C)c(C)c(C)c1O.Cl` [Example 141, 2-(2,2-dimethylpropionyl)-7-(3-fluoroazetidin-1-yl)methyl-N-(4-hydroxy-2,3,5-trimethylphenyl)-1,2,3,4-tetrahydroisoquinoline-(3S)-carboxamide hydrochloride], the “cholesteryl ester accumulation inhibitory rate (%) (concentration: 10^−6 M)” value in data set [1] turned out to be 88.0%. Moreover, the “maximum blood concentration” value in data set [3] is 0.49 µg/mL. Besides, the “inhibitory rate (%) (10^−4M), stable radical” value in data set [4] (room temperature for 60 min) is listed as 63.7%. Further, in data set [5], the “inhibitory rate (%) (10^−4M), lipid peroxidation” value is listed as 94.8%.

Regarding `CCN(CC)Cc1ccc2c(c1)CN(C(=O)C(C)(C)C)[C@H](C(=O)Nc1cc(C)c(O)c(C)c1C)C2` [Example 133, 7-diethylaminomethyl-2-(2,2-dimethylpropionyl)-N-(4-hydroxy-2,3,5-trimethylphenyl)-1,2,3,4-tetrahydroisoquinoline-(3S)-carboxamide], the “maximum blood concentration” value in data set [3] stood at 0.48 µg/mL. Besides, the “inhibitory rate (%) (10^−4M), stable radical” value in data set [4] (room temperature for 60 min) stood at 65.5%.

Regarding `CCC(C)(C)C(=O)N1Cc2cc(N(C)C)ccc2C[C@H]1C(=O)Nc1cc(C)c(O)c(C)c1C.Cl` [Example 69, 7-dimethylamino-2-(2,2-dimethylbutyryl)-N-(4-hydroxy-2,3,5-trimethylphenyl)-1,2,3,4-tetrahydroisoquinoline-(3S)-carboxamide hydrochloride], the “cholesteryl ester accumulation inhibitory rate (%) (concentration: 10^−6 M)” value in data set [1] is reported as 99.4%. Moreover, in data set [2], the “Cholesterol secretion inhibitory rate (%) (10 mg)/kg/3 hr” value is on record as 31.4%. In addition, the “inhibitory rate (%) (10^−4M), stable radical” value in data set [4] (setting [6]) is recorded as 97.0%.

Consider `Cc1cc(NC(=O)[C@@H]2Cc3ccc(CNCCF)cc3CN2C(=O)C(C)(C)C)c(C)c(C)c1O.Cl` [Example 140, 2-(2,2-dimethylpropionyl)-7-(2-fluoroethylamino)methyl-N-(4-hydroxy-2,3,5-trimethylphenyl)-1,2,3,4-tetrahydroisoquinoline-(3S)-carboxamide hydrochloride], for which the “maximum blood concentration” value in data set [3] amounted to 0.44 µg/mL.

Take `Cc1cc(NC(=O)[C@@H]2Cc3ccc(N4CCN(C)CC4)cc3CN2C(=O)C(C)(C)C)c(C)c(C)c1O` [Example 122, 2-(2,2-dimethylpropionyl)-N-(4-hydroxy-2,3,5-trimethylphenyl)-7-(4-methylpiperazin-1-yl)-1,2,3,4-tetrahydroisoquinoline-(3S)-carboxamide]: in data set [3], the “maximum blood concentration” value came to 0.60 µg/mL. In addition, in data set [4] (room temperature for 60 min), the “inhibitory rate (%) (10^−4M), stable radical” value worked out at 72.3%. The “inhibitory rate (%) (10^−4M), lipid peroxidation” value in data set [5] came to 75.9%.

As to `C/C=C/C=C/C(=O)N1Cc2cc(N(C)C)ccc2C[C@H]1C(=O)Nc1cc(C)c(O)c(C)c1C.Cl` [Example 70, 7-dimethylamino-2-[(2E,4E)-hexadienoyl]-N-(4-hydroxy-2,3,5-trimethylphenyl)-1,2,3,4-tetrahydroisoquinoline-(3S)-carboxamide hydrochloride], in data set [2], the “Cholesterol secretion inhibitory rate (%) (10 mg)/kg/3 hr” value was 23.0%.

For the compound `COC1CN(Cc2ccc3c(c2)CN(C(=O)C(C)(C)C)[C@H](C(=O)Nc2cc(C)c(O)c(C)c2C)C3)C1.Cl` [Example 143, 2-(2,2-dimethylpropionyl)-N-(4-hydroxy-2,3,5-trimethylphenyl)-7-(3-methoxyazetidin-1-yl)methyl-1,2,3,4-tetrahydroisoquinoline-(3S)-carboxamide hydrochloride], in data set [1], the “cholesteryl ester accumulation inhibitory rate (%) (concentration: 10^−6 M)” value came out at 60.9%. For the same compound, the “maximum blood concentration” value in data set [3] came out at 0.46 µg/mL. In data set [4] (room temperature for 60 min), the “inhibitory rate (%) (10^−4M), stable radical” value is on record as 61.0%. The “inhibitory rate (%) (10^−4M), lipid peroxidation” value in data set [5] came out at 64.1%.

On to `Cc1cc(NC(=O)[C@@H]2Cc3ccc(N(C)C)cc3CN2C(=O)C(C)C)c(C)c(C)c1O.Cl` [Example 72, 7-dimethylamino-N-(4-hydroxy-2,3,5-trimethylphenyl)-2-isobutyryl-1,2,3,4-tetrahydroisoquinoline-(3S)-carboxamide hydrochloride], for which, in the data set with liver ACAT, the “liver ACAT inhibition rate (%) (concentration: 10^−6 M)” value worked out at 91.4%. Also, the “cholesteryl ester accumulation inhibitory rate (%) (concentration: 10^−6 M)” value in data set [1] is recorded as 80.5%. Also, the “maximum blood concentration” value in data set [3] came out at 0.91 µg/mL. Further, in data set [4] (setting [6]), the “inhibitory rate (%) (10^−4M), stable radical” value is recorded as 97.0%.
